# According to ChEMBL document CHEMBL5346933, “Design and synthesis of novel arylurea derivatives of aryloxy(1-phenylpropyl) alicyclic diamines with antimicrobial activity against multidrug-resistant Gram-positive bacteria” (Eur J Med Chem, 2023):
# Activity calls are given as the source filed them. No cut-off for these calls is given here.
# How the values were obtained:
# Pseudomonas aeruginosa = test: Antibacterial activity against Pseudomonas aeruginosa ATCC 27853 assessed as inhibition of bacterial growth incubated for 18 hrs by broth microdilution method; assay type: functional
# [1] = test system: Staphylococcus epidermidis; test: Antibacterial activity against biofilm producer Staphylococcus epidermidis ATCC 35984 assessed as inhibition of bacterial growth incubated for 18 hrs by broth microdilution method; assay type: functional
# Klebsiella pneumoniae = test: Antibacterial activity against Klebsiella pneumoniae ATCC 700603 assessed as inhibition of bacterial growth incubated for 18 hrs by broth microdilution method; assay type: functional
# Streptococcus pneumoniae = test: Antibacterial activity against Streptococcus pneumoniae ATCC 49619 assessed as inhibition of bacterial growth incubated for 18 hrs by broth microdilution method; assay type: functional
# Staphylococcus aureus [2] = test: Antibacterial activity against biofilm producer Staphylococcus aureus RN450 assessed as inhibition of bacterial growth incubated for 18 hrs by broth microdilution method; assay type: functional
# [3] = test system: Staphylococcus epidermidis; test: Antibacterial activity against linezolid-resistant Staphylococcus epidermidis NIL 4399/19 assessed as inhibition of bacterial growth incubated for 18 hrs by broth microdilution method; assay type: functional
# Escherichia coli = test: Antibacterial activity against Escherichia coli ATCC 25922 assessed as inhibition of bacterial growth incubated for 18 hrs by broth microdilution method; assay type: functional
# Staphylococcus aureus [4] = test: Antibacterial activity against methicillin-susceptible Staphylococcus aureus ATCC 25923 assessed as inhibition of bacterial growth incubated for 18 hrs by broth microdilution method; assay type: functional
# Staphylococcus aureus [5] = test: Antibacterial activity against vancomycin-intermediate Staphylococcus aureus ATCC 700699 assessed as inhibition of bacterial growth incubated for 18 hrs by broth microdilution method; assay type: functional
# Staphylococcus aureus [6] = test: Antibacterial activity against methicillin-resistant Staphylococcus aureus clinical strain 19449 assessed as inhibition of bacterial growth incubated for 18 hrs by broth microdilution method; assay type: functional
# [7] = test system: Staphylococcus epidermidis; test: Antibacterial activity against methicillin-susceptible Staphylococcus epidermidis ATCC 12228 assessed as inhibition of bacterial growth incubated for 18 hrs by broth microdilution method; assay type: functional
# Enterococcus faecium = test: Antibacterial activity against vancomycin-resistant Enterococcus faecium assessed as inhibition of bacterial growth incubated for 18 hrs by broth microdilution method; assay type: functional
# Enterococcus faecalis = test: Antibacterial activity against Enterococcus faecalis ATCC 29212 assessed as inhibition of bacterial growth incubated for 18 hrs by broth microdilution method; assay type: functional
# [8] = Cytotoxicity against human MRC5 cells assessed as reduction in cell viability incubated for 24 hrs by MTT assay; assay type: toxicity, cell-based
# [9] = Induction of hemolysis in horse RBC at 200 uM incubated for 1 hr; assay type: toxicity, cell-based, Equus caballus, Erythrocyte; conditions: horse red blood cells (erythrocytes), read-out: Activity
# [10] = Cytotoxicity against human BJ cells assessed as reduction in cell viability incubated for 24 hrs by MTT assay; assay type: toxicity, cell-based
SMILES,Activity (Pseudomonas aeruginosa),MIC [1] [µg/mL],Activity (Klebsiella pneumoniae),MIC (Streptococcus pneumoniae) [µg/mL],MIC (Staphylococcus aureus [2]) [µg/mL],MIC [3] [µg/mL],Activity (Escherichia coli),MIC (Staphylococcus aureus [4]) [µg/mL],MIC (Staphylococcus aureus [5]) [µg/mL],MIC (Staphylococcus aureus [6]) [µg/mL],MIC [7] [µg/mL],MIC (Enterococcus faecium) [µg/mL],MIC (Enterococcus faecalis) [µg/mL],IC50 at 24 h [8] [µg/mL],"hemolysis at 1 h, 200 µM [9] [%]",IC50 at 24 h [10] [µg/mL]
COc1ccc(OC(CCN2CCC(NC(=O)Nc3cccc(Cl)c3)CC2)c2ccccc2)cc1 (racemic),inactive,6.25,inactive,> 12.5,6.25,6.25,inactive,12.5,6.25,12.5,12.5,–,–,–,–,–
O=C(Nc1cccc(Cl)c1)NC1CCN(CCC(Oc2ccccc2)c2ccccc2)CC1 (racemic),inactive,3.12,inactive,12.5,1.56,6.25,inactive,6.25,12.5,12.5,6.25,–,–,–,–,–
O=C(Nc1cccc(Cl)c1)NC1CCN(CCC(Oc2cccc(F)c2)c2ccccc2)CC1 (racemic),inactive,3.12,inactive,12.5,3.12,6.25,inactive,6.25,6.25,6.25,6.25,1.56,6.25,–,–,–
O=C(Nc1cccc(Cl)c1)N[C@@H]1CCN(CCC(Oc2ccc(C(F)(F)F)cc2)c2ccccc2)C1 (some centres undefined),inactive,1.56,inactive,6.25,1.56,3.12,inactive,3.12,3.12,3.12,3.12,1.56,3.12,3.12,9,3.12
O=C(Nc1cccc(Cl)c1)NC1CCN(CCC(Oc2ccccc2F)c2ccccc2)CC1 (racemic),inactive,12.5,inactive,12.5,6.25,6.25,inactive,12.5,12.5,12.5,12.5,–,–,–,–,–
O=C(Nc1cccc(Cl)c1)N[C@H]1CCN(CCC(Oc2ccc(Cl)cc2)c2ccccc2)C1 (some centres undefined),inactive,3.12,inactive,6.25,3.12,6.25,inactive,6.25,1.56,6.25,1.56,3.12,3.12,3.12,11,6.25
O=C(Nc1cccc(Cl)c1)NC1CCN(CCC(Oc2ccc(F)cc2)c2ccccc2)CC1 (racemic),inactive,3.12,inactive,12.5,3.12,6.25,inactive,6.25,6.25,6.25,6.25,1.56,6.25,–,–,–
O=C(Nc1ccc(F)cc1)NC1CCN(CCC(Oc2ccc(C(F)(F)F)cc2)c2ccccc2)CC1 (racemic),inactive,3.12,inactive,> 12.5,3.12,3.12,inactive,6.25,6.25,3.12,6.25,3.12,6.25,–,–,–
O=C(Nc1ccc(Cl)cc1)NC1CCN(CCC(Oc2ccc(C(F)(F)F)cc2)c2ccccc2)CC1 (racemic),inactive,3.12,inactive,6.25,1.56,> 12.5,inactive,> 12.5,> 12.5,6.25,> 12.5,–,–,–,–,–
O=C(Nc1cccc(F)c1)NC1CCN(CCC(Oc2ccc(C(F)(F)F)cc2)c2ccccc2)CC1 (centres undefined),inactive,3.12,inactive,6.25,1.56,3.12,inactive,6.25,6.25,3.12,3.12,0.78,3.12,–,–,–
O=C(Nc1ccccc1)NC1CCN(CCC(Oc2ccc(C(F)(F)F)cc2)c2ccccc2)CC1 (racemic),inactive,12.5,inactive,> 12.5,> 12.5,> 12.5,inactive,> 12.5,> 12.5,> 12.5,> 12.5,–,–,–,–,–
